# Measured values published in the supplement of paper PMC11061612.
# What was measured:
# Test in all cases: Bliss excess, mean over the matrix (fraction); higher = more synergy
# [1] = test system: L-428 (Hodgkin's Lymphoma)
# Summary of the method: (§1)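 After 24 hours at 37°C and 5% CO2 in 1536-well plates, cells in DMEM/F12 or RPMI plus 10% FBS received two-drug dose matrices for 72 hours. Viability came from CellTiter-Glo 2.0 luminescence and was scaled as inhibition, anchored at 0 by vehicle wells and at 1 by blank wells. Combination Emax is taken as the second-highest inhibition in the matrix, and Bliss excess as the observed combination effect less EA + EB − EA·EB, with EA and EB the single-agent effects.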
# [2] = test system: OE21 (Esophageal Squamous Cell Carcinoma)
# Summary of the method: as §1
# [3] = test system: LOXIMVI (Melanoma)
# Summary of the method: as §1
# [4] = test system: OV-56 (Ovarian Carcinoma)
# Summary of the method: as §1
# [5] = test system: NCI-H524 (Small Cell Lung Carcinoma)
# Summary of the method: as §1
# [6] = test system: BE-13 (T-Lymphoblastic Leukemia)
# Summary of the method: as §1
# [7] = test system: ESS-1 (Other Solid Carcinomas)
# Summary of the method: as §1
# [8] = test system: HuCCT1 (Biliary Tract Carcinoma)
# Summary of the method: as §1
# [9] = test system: WSU-NHL (B-Cell Non-Hodgkin's Lymphoma)
# Summary of the method: as §1
# [10] = test system: FTC-133 (Thyroid Gland Carcinoma)
# Summary of the method: as §1
# [11] = test system: HuH-7 (Hepatocellular Carcinoma)
# Summary of the method: as §1
# [12] = test system: KS-1 (Glioblastoma)
# Summary of the method: as §1
# [13] = test system: LCLC-97TM1 (Non-Small Cell Lung Carcinoma)
# Summary of the method: as §1
# [14] = test system: CAL-33 (Oral Cavity Carcinoma)
# Summary of the method: as §1
# [15] = test system: Hs-746T (Gastric Carcinoma)
# Summary of the method: as §1
# [16] = test system: SW1710 (Bladder Carcinoma)
# Summary of the method: as §1
# [17] = test system: A673 (Ewing's Sarcoma)
# Summary of the method: as §1
# [18] = test system: SW1573 (Lung Adenocarcinoma)
# Summary of the method: as §1
# [19] = test system: MPP-89 (Mesothelioma)
# Summary of the method: as §1
# [20] = test system: OVCAR-5 (Ovarian Carcinoma)
# Summary of the method: as §1
Compound,Bliss excess [1],Bliss excess [2],Bliss excess [3],Bliss excess [4],Bliss excess [5],Bliss excess [6],Bliss excess [7],Bliss excess [8],Bliss excess [9],Bliss excess [10],Bliss excess [11],Bliss excess [12],Bliss excess [13],Bliss excess [14],Bliss excess [15],Bliss excess [16],Bliss excess [17],Bliss excess [18],Bliss excess [19],Bliss excess [20]
"CCc1c2c(nc3ccc(O)cc13)-c1cc3c(c(=O)n1C2)COC(=O)[C@]3(O)CC [SN-38] + CN(C)CCCOc1ccc(-c2ccc3ncc4c(c3c2)n(C2CCOCC2)c(=O)n4C)cn1 [AZD0156] (first compound max 0.3 µM, 7x7, partner max 1 µM)",-0.0558,-0.0243,0.0017,0.0154,0.0993,-0.103,0.0109,-0.0337,0.0636,-0.0031,0,-0.0369,-0.0059,0.0579,-0.029,0.0111,0.0777,0.0139,0.0342,-0.0235
"CN(CCO)CC[C@H](CSc1ccccc1)Nc1ccc(S(=O)(=O)NC(=O)c2ccc(N3CCC([C@@H](O)c4ccccc4-c4ccc(Cl)cc4)CC3)cc2)cc1S(=O)(=O)C(F)(F)F [AZD4320] + Cn1cnc2c(F)c(Nc3ccc(Br)cc3Cl)c(C(=O)NOCCO)cc21 [Selumetinib] (first compound max 1 µM, 7x7, partner max 3 µM)",0.0143,0.0225,0.0352,-0.0063,-0.0061,-0.0017,-0.0507,0.0309,-0.0491,-0.0023,0.0069,-0.0051,0.0523,0.0749,0.0402,0.0287,0.0944,0.0119,-0.0056,-0.0282
"CC1(C)CCC(CN2CCN(c3ccc(C(=O)NS(=O)(=O)c4ccc(NCC5CCOCC5)c([N+](=O)[O-])c4)c(Oc4cnc5[nH]ccc5c4)c3)CC2)=C(c2ccc(Cl)cc2)C1 [Venetoclax] + C[C@@H]1COCCN1C2=NC(=NC(=C2)C3(CC3)[S@](=N)(=O)C)C4=C5C=CNC5=NC=C4 [AZD6738] (first compound max 1 µM, 7x7, partner max 10 µM)",0.0164,-0.0357,-0.011,-0.0475,-0.0453,-0.0204,0.0147,-0.012,-0.0913,-0.0014,-0.0181,-0.0368,-0.0506,-0.0489,-0.063,-0.0404,-0.0024,-0.0705,-0.0226,-0.0717
"CC(=O)Nc1cccc(-n2c(=O)n(C3CC3)c(=O)c3c(Nc4ccc(I)cc4F)n(C)c(=O)c(C)c32)c1 [Trametinib] + Cc1nc(-c2cn3c(n2)-c2ccc(-c4cnn(C(C)(C)C(N)=O)c4)cc2OCC3)n(C(C)C)n1 [Taselisib] (first compound max 1 µM, 7x7, partner max 10 µM)",-0.0045,0.147,0.137,-0.0025,-0.112,-0.0123,0.114,0.182,0.0079,-0.046,0.0875,0.015,0.0752,0.104,0.0172,0.016,0.229,0.0334,0.103,0.105
"CN(CCO)CC[C@H](CSc1ccccc1)Nc1ccc(S(=O)(=O)NC(=O)c2ccc(N3CCC([C@@H](O)c4ccccc4-c4ccc(Cl)cc4)CC3)cc2)cc1S(=O)(=O)C(F)(F)F [AZD4320] + C1CN(CCC1(C(=O)N[C@@H](CCO)C2=CC=C(C=C2)Cl)N)C3=NC=NC4=C3C=CN4 [Capivasertib] (first compound max 1 µM, 7x7, partner max 3 µM)",-0.0146,0.0073,-0.0189,-0.0243,-0.0517,-0.0175,0.0028,-0.0536,-0.0413,-0.0459,-0.0402,-0.0435,-0.0048,-0.0424,0.0094,-0.034,0.0099,-0.0614,-0.0234,-0.0487
"CN(C)CCCOc1ccc(-c2ccc3ncc4c(c3c2)n(C2CCOCC2)c(=O)n4C)cn1 [AZD0156] + C[C@@H]1COCCN1C2=NC(=NC(=C2)C3(CC3)[S@](=N)(=O)C)C4=C5C=CNC5=NC=C4 [AZD6738] (first compound max 1 µM, 7x7, partner max 10 µM)",0.0132,0.0015,0.0721,0.0361,0.0229,-0.0619,-0.0177,0.0297,-0.0252,-0.0043,0.0196,-0.0267,-0.0039,-0.0178,-0.0211,-0.0134,0.0153,-0.0315,0.0041,-0.001
"Cc1c2c(nn1C)CSCc1cc(n(C)n1)CSc1cc(c3ccccc3c1)OCCCc1c(C(=O)O)n(C)c3c-2c(Cl)ccc13 [AZD5991] + C[C@@H]1COCCN1C2=NC(=NC(=C2)C3(CC3)[S@](=N)(=O)C)C4=C5C=CNC5=NC=C4 [AZD6738] (first compound max 1 µM, 7x7, partner max 10 µM)",0.023,0.0157,-0.0373,0.0293,-0.0395,0.0135,-0.0451,0.0206,-0.0352,0.0969,-0.0057,0.0147,0.0401,0.0008,0.0423,0.0299,0.0077,0.0337,-0.0426,-0.0248
"CCN(CCO)CCCOc1ccc2c(Nc3cc(CC(=O)Nc4cccc(F)c4)[nH]n3)ncnc2c1 [AZD2811] + C[C@@H]1COCCN1C2=NC(=NC(=C2)C3(CC3)[S@](=N)(=O)C)C4=C5C=CNC5=NC=C4 [AZD6738] (first compound max 1 µM, 7x7, partner max 10 µM)",0.0145,-0.142,-0.0763,-0.11,-0.0399,-0.148,-0.018,-0.0767,-0.0665,0.0103,-0.0453,-0.0711,0.0116,-0.0199,-0.0706,-0.0975,-0.0587,-0.0394,-0.0823,-0.0429
"COc1nnc2ccc(N3CCC(c4ccc(OCCN5CCN(C)C(=O)[C@H]5C)cc4)CC3)nn12 [AZD5153] + Cn1cnc2c(F)c(Nc3ccc(Br)cc3Cl)c(C(=O)NOCCO)cc21 [Selumetinib] (first compound max 1 µM, 7x7, partner max 10 µM)",-0.0409,0.0032,-0.0679,-0.0232,-0.0216,-0.0209,-0.0065,0.0453,0.0023,-0.0539,0.006,0.0982,-0.0694,0.0584,-0.0227,-0.0433,0.111,-0.0062,0.0192,-0.0429
"CN(CCO)CC[C@H](CSc1ccccc1)Nc1ccc(S(=O)(=O)NC(=O)c2ccc(N3CCC([C@@H](O)c4ccccc4-c4ccc(Cl)cc4)CC3)cc2)cc1S(=O)(=O)C(F)(F)F [AZD4320] + C[C@@H](Nc1cc(F)cc(F)c1)c1cc(C(=O)N(C)C)cc2c(=O)cc(N3CCOCC3)oc12 [AZD8186] (first compound max 1 µM, 7x7, partner max 3 µM)",0.0393,0.0243,-0.0239,-0.0031,0.0121,-0.0065,-0.01,0.0583,-0.037,0.0718,0.0262,-0.0166,-0.014,-0.0039,-0.0354,0.0263,0.0149,-0.0169,0.0212,-0.0133
"COc1nnc2ccc(N3CCC(c4ccc(OCCN5CCN(C)C(=O)[C@H]5C)cc4)CC3)nn12 [AZD5153] + C[C@@H]1COCCN1C2=NC(=NC(=C2)C3(CC3)[S@](=N)(=O)C)C4=C5C=CNC5=NC=C4 [AZD6738] (first compound max 1 µM, 7x7, partner max 10 µM)",0.009,-0.0266,-0.0413,0.0824,0.0142,-0.0227,-0.0192,-0.046,-0.0621,0.0856,0.113,-0.0349,-0.033,-0.031,0.0429,0.0013,0.0361,0.109,0.0648,-0.0276
"COc1cccc(OCCCN)c1-c1cc(Nc2cnc(C#N)cn2)n[nH]1 [Prexasertib] + C=CCn1c(=O)c2cnc(Nc3ccc(N4CCN(C)CC4)cc3)nc2n1-c1cccc(C(C)(C)O)n1 [AZD1775] (first compound max 1 µM, partner max 1 µM)",0.0109,-0.0663,0.0467,-0.0015,0.053,0.0317,0.0299,0.0261,0.0303,-0.0182,0.0469,-0.0244,0.057,0.117,-0.0572,0.12,0.0752,0.0456,0.0912,0.044
